# Test results from publication PMC10146426, “Naturally Occurring Chalcones with Aggregation-Induced Emission Enhancement Characteristics” (Molecules, 2023).
# Where two headings read alike, the source gives them in different places.
# Key:
# [1] = DPPH radical-scavenging activity assay; details: for DPPH Radical Scavenging (%) after 30 min / DPPH Radical Scavenging (%) after 60 min: mean ± SD
# Method: 2,2-Diphenylpicrylhydrazyl (DPPH) was purchased from Sigma-Aldrich (Steinheim, Germany). DPPH radical-scavenging activity was determined according to the method described by Brand-Williams et al. using (+)-catechin (Sigma-Aldrich, Steinheim, Germany) as the positive control. The chalcone samples were previously dissolved in DMSO and MeOH at the molar concentration of 2 × 10^–3 M. The positive control sample was dissolved in DMSO at the same molar concentration. The DPPH stock solution was diluted 10× with methanol to obtain the concentration of 1 × 10^–4 M. The measurements: 70 μL of the sample was added to 4 mL of the DPPH solution, and the samples were left for 30 or 60 min at room temperature in the dark. The absorbance was recorded at 517 nm by s Varian Cary 50 spectrophotometer. The control was prepared as above without any sample.
# DPPH free-radical scavenging activity was calculated using the following Formula (2):(2) Scavenging activity [%]=[Absorbance of control−Absorbance of test sample]/Absorbance control×100 where the absorbance of control is the absorbance of DPPH radicals in the absence of compounds, and the absorbance of the test sample is the absorbance in the presence of the studied compound.
# [2] = biological target: T1, butyrylcholinesterase (BuChE, E.C. 3.1.1.8, from equine serum) (Equus caballus, UniProt P81908); test: BuChE inhibition (Ellman method); format: biochemical
# T1 construct: butyrylcholinesterase (BuChE, E.C. 3.1.1.8, from equine serum); purchased Sigma-Aldrich (Steinheim, Germany); host or cells: equine serum (natural source)
# T1 sequence (P81908 whole entry): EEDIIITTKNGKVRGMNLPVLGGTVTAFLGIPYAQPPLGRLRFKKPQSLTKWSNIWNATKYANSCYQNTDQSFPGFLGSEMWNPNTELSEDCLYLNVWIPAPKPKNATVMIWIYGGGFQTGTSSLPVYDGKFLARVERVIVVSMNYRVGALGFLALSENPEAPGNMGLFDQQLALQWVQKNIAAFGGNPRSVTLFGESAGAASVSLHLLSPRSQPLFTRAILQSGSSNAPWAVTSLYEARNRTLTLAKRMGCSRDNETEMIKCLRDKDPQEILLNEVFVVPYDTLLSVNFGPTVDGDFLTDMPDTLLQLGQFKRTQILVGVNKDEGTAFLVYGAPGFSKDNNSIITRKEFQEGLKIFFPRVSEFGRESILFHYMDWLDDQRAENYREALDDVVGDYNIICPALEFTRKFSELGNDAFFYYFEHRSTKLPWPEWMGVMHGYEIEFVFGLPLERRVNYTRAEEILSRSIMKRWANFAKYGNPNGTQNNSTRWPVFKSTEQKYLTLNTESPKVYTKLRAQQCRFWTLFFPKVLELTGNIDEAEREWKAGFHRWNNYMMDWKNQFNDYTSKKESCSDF
# Method: (§1) The inhibitory activities against AChE and BuChE of the prepared compounds were performed by means of the method previously developed by Ellman et al. using neostigmine as the reference compound [68]. This is based on the reaction of released thiocholine to give a coloured product with a chromogenic reagent. Seven different concentrations of the compounds in the range 10^−9–10^−3 M were measured at 412 nm. All the assays were performed in the 0.1 M NaH2PO4/Na2HPO4 buffer (pH = 8) using the Varian Cary 50 spectrophotometer. 5,5′-Dithio-bis(2-nitrobenzoic acid) (DTNB) was used to measure the anti-AChE activity. […] Briefly, 140 µL of 0.1 mM sodium phosphate buffer (pH 8.0), 20 µL of DTNB, 20 µL of the assay solution and 20 µL of the AChE/BuChE solution were added and incubated for 15 min at 25 °C. The reaction was then initiated by adding 10 µL of acetylthiocholine iodide or butylthiocholine iodide. Yellow anion (2-nitro-5-thiobenzoic acid) formation was recorded at 412 nm for 10 min. It was determined by preparing an identical solution of the enzyme in the absence of tested compounds (as the control). Control and inhibitor readings were corrected with a blank read. All operations were repeated three times. The inhibition properties are reported as the IC50 values, which were determined graphically from the inhibition curves of log inhibitor concentration vs. the percentage of inhibition. The IC50 values represent the concentration of the inhibitor required for 50% inhibition of the enzyme.
# [3] = biological target: T2, Acetylcholinesterase (AChE, E.C. 3.1.1.7, from human erythrocytes) (Homo sapiens, UniProt P22303); test: AChE inhibition (Ellman method); format: biochemical
# T2 construct: Acetylcholinesterase (AChE, E.C. 3.1.1.7, from human erythrocytes); purchased Sigma-Aldrich (Steinheim, Germany); host or cells: human erythrocytes (natural source)
# T2 sequence (P22303 32-617 isoform P22303-2 limits assumed): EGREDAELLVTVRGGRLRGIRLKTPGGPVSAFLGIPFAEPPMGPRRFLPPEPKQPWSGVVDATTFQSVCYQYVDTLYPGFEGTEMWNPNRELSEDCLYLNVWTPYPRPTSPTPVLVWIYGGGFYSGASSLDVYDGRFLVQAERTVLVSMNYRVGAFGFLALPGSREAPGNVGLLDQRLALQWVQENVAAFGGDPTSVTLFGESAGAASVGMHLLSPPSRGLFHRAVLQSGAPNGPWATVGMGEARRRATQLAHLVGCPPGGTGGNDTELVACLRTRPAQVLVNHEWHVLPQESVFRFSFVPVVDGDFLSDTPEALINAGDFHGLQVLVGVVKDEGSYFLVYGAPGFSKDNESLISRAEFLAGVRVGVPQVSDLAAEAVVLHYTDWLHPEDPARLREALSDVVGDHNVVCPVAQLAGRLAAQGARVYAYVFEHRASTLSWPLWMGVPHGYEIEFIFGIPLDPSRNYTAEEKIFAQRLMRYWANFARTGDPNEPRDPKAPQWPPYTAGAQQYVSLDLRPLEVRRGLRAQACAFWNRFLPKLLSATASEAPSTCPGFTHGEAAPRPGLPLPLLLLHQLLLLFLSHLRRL
# Method: as §1
# [4] = samples dissolved in DMSO (stock 2 × 10^−3 M), three experiments
# [5] = samples dissolved in MeOH (stock 2 × 10^−3 M)
# [6] = pH 8 phosphate buffer, 25 °C, n = 9, read-out: BuChE IC50 Mean ± SD
# [7] = pH 8 phosphate buffer, 25 °C, n = 9, read-out: AChE IC50 Mean ± SD
Compound,"DPPH Radical Scavenging (%) after 30 min [1, 4]",IC50 [2],IC50 [3],"DPPH Radical Scavenging (%) after 30 min [1, 5]","DPPH Radical Scavenging (%) after 60 min [1, 5]","IC50 [2, 6]","IC50 [3, 7]",inhibitory properties towards AChE ([3]; result in words),"DPPH Radical Scavenging (%) after 30 min ([1]; samples dissolved in DMSO (stock 2 × 10^−3 M), three experiments, listed as licochalcone A)","DPPH Radical Scavenging (%) after 60 min ([1]; samples dissolved in MeOH (stock 2 × 10^−3 M), listed as licochalcone A)",DPPH radical scavenging (%) ([1]; solvent and time not stated)
"Oc1cc(O)c2c(c1)O[C@H](c1ccc(O)c(O)c1)[C@@H](O)C2 [(+)-catechin, reference compound]",94.14 ± 0.44%,,,,,,,,,,
"COc1cc(O)cc(O)c1C(=O)/C=C/c1ccccc1 [CA, cardamonin]",2.09 ± 0.05%,75.29 ± 0.41 µM,67.87 ± 0.01 µM,0.79 ± 0.07%,1.33 ± 0.14%,,,,,,
"COc1ccc(/C=C/C(=O)c2c(O)cc(OC)cc2OC)cc1 [HCH, 2′-hydroxy-4,4′,6′-trimethoxychalcone]",2.09 ± 0.03%,,,0.30 ± 0.06%,0.35 ± 0.05%,76.5 ± 3.03 µM,> 100 µM,did not show any inhibitory properties,,,
"CC(C)=CCc1c(O)ccc(C(=O)/C=C/c2ccc(O)cc2)c1O [IBC, isobavachalcone]",2.36 ± 0.07%,,,0.61 ± 0.01%,1.03 ± 0.06%,43.05 ± 0.16 µM,35.48 ± 0.01 µM,,,,
"C=CC(C)(C)c1cc(/C=C/C(=O)c2ccc(O)cc2)c(OC)cc1O [LIC, licochalcone A]",29.24 ± 0.70%,42.28 ± 0.06 µM,23.41 ± 0.02 µM,26.50 ± 0.92%,29.60 ± 0.98%,,,,~ 29%,~ 29%,29%
"CN(C)C(=O)Oc1cccc([N+](C)(C)C)c1 [Neostygmine, neostigmine bromide, reference compound]",,0.03 ± 0.01 µM,,,,,,,,,
"COc1cc(O)c(CC=C(C)C)c(O)c1C(=O)/C=C/c1ccc(O)cc1 [XN, xanthohumol]",7.99 ± 0.05%,,,4.34 ± 0.05%,6.72 ± 0.30%,65.79 ± 0.34 µM,40.81 ± 0.04 µM,,,,
